Data published in US20240408100A1, “TREATMENT METHODS FOR SUBJECTS HAVING CANCER WITH A DYSREGULATED MAPK AND/OR PI3K PATHWAY” (TAIHO PHARMACEUTICAL CO., LTD., priority 2021, published 2024).
pIC50: −log10 of the molar value. Like-named read-outs stand apart in the source and are kept apart here.

Experiments:
[1] = tested on: MCF7_NF1KD; test: growth inhibition, 3 days; assay type: cell-based; settings: Homo sapiens
Experimental: (§1) MCF7 cells cultured in phenol red-free RPMI1640 medium containing 10% charcoal stripped FBS were transfected with NF1 siRNA to a final concentration of […] using Lipofectamine RNAiMAX. The cells were then incubated for 1 day at 37° C., 5% CO2. After that, E2 (estrogen) was added to the medium at 1 nmol/L final concentration, and the cells were cultured for 3 days, after which the cells were collected and cell extracts were prepared.
(§2) To investigate the growth inhibition effect of Compound (1) on the NF1-depleted ER+/HER2− breast cancer cells, MCF7 and T47D, the serially diluted Compound (1) was exposed to the cells for 3 days as in the previous experiment.
(§3) The growth inhibition curve in MCF7 and T47D cells were obtained and the half maximal inhibitory concentration (IC50) value of growth inhibition were calculated as shown in Table 1.

[2] = tested on: MCF7; test: growth inhibition, 3 days; assay type: cell-based; settings: Homo sapiens, MCF7, NF1 WT
Experimental: as §1, §2, §3

[3] = tested on: T47D_NF1KD; test: growth inhibition, 3 days; assay type: cell-based
Experimental: as §1, §2, §3

[4] = tested on: T47D; test: growth inhibition, 3 days; assay type: cell-based; settings: Homo sapiens, NF1 WT
Experimental: as §1, §2, §3

[5] = tested on: BT483; test: growth inhibition assay, NF1 mutant cell line; assay type: cell-based; settings: Homo sapiens, BT-483; BT483, ER+ breast, NF1 p.R1204W
Excerpt: (§4) In order to investigate the growth inhibitory effect of Compound (1) in NF1 mutant cancer cell lines, the IC50 values of growth inhibition assay were obtained and compared then in Table 2.
(§5) In this experiment, to compare the growth inhibitory effect of Compound (1) with those of MAPK and PI3K signaling inhibitors, the IC50 values of trametinib (as a MEK inhibitor), and Alpelisib (as a PI3K inhibitor) were obtained and compared.

[6] = tested on: MDA-MB-231; test: growth inhibition assay, NF1 mutant cell line; assay type: cell-based; settings: Homo sapiens; MDA-MB-231, TN breast, NF1 p.T467Hfs*3
Excerpt: as §4, §5

[7] = tested on: MeWo; test: growth inhibition assay, NF1 mutant cell line; assay type: cell-based; settings: Homo sapiens, melanoma, NF1 p.Q1336*
Excerpt: as §4, §5

[8] = tested on: RKO; test: growth inhibition assay, NF1 mutant cell line; assay type: cell-based; settings: Homo sapiens, colon
Excerpt: as §4, §5

[9] = tested on: AsPC-1; test: 3-day growth inhibition assay; assay type: cell-based; settings: Homo sapiens, ASPC1; AsPC-1 (Pancreas), KRAS p.G12D; read-out: Growth inhibition (IC50: nmol/L)
Experimental: (§6) The IC50 values for each compound in cell lines used in a series of animal experiments evaluating the antitumor effects of Compound (1) on KRAS mutant tumor xenografts were determined by a 3-day growth inhibition assay (Table 7).

[10] = tested on: LS180; test: 3-day growth inhibition assay; assay type: cell-based; settings: Homo sapiens; LS180 (Colon), KRAS p.G12D, PIK3CA p.H1047R, PTEN p.I67K; read-out: Growth inhibition (IC50: nmol/L)
Experimental: as §6

[11] = tested on: LU65; test: 3-day growth inhibition assay; assay type: cell-based; settings: Homo sapiens, Lu-65; LU65 (NSCLC), KRAS p.G12C; read-out: Growth inhibition (IC50: nmol/L)
Experimental: as §6

[12] = tested on: SW1573; test: 3-day growth inhibition assay; assay type: cell-based; settings: Homo sapiens; SW1573 (NSCLC), KRAS p.G12C, PIK3CA p.K111E; read-out: Growth inhibition (IC50: nmol/L)
Experimental: as §6

[13] = tested on: LS180 human colorectal tumor xenografts; test: antitumor effect in mice with LS180 xenograft tumors; assay type: in vivo; settings: 80 mg/kg/day
Experimental: The oncogenic KRAS mutations are diverse, including not only G12C but also G12X and G13X in the mutation hotspot Glycine at […]. To determine whether Compound (1), which targets downstream of MAPK and PI3K signaling, is effective against G12D mutated cancers, an efficacy experiment of Compound (1) was conducted using subcutaneously transplanted LS180 tumor derived from colorectal cancers with KRAS G12D and PIK3CA and PTEN gene alterations.
Evaluation was conducted by comparing the efficacy of 80 mg/kg/day of Compound (1) with that of 1 mg/kg/day MEK inhibitor trametinib used as a reference group.

[14] = tested on: MCF7 cells (control and NF1 knockdown); test: immunoblotting of target inhibition and apoptosis induction; assay type: cell-based, human
Experimental: To investigate the mechanism of action of Compound (1) in inhibiting the growth of NF1 knockdown breast cancer cells, Compound (1), trametinib, Alpelisib, and fulvestrant were exposed to NF1-knockdown MCF7 and T47D cells at indicated final concentration for 24 hours. NF1, pPRAS40 Thr246, pYB1 Ser102, pS6RP Ser235/236, ERα, and cleaved PARP were detected by immunoblotting.

[15] = tested on: ER+/HER2− breast cancer cell lines; test: immunoblotting, combination with fulvestrant, presence and absence of estrogen and NF1; assay type: cell-based; settings: single agent; presence or absence of estrogen; NF1 wildtype and NF1 knockdown cells
Experimental: The actual standard of care for ER+/HER2− breast cancer uses the adjuvant therapies such as tamoxifen, letrozole, or fulvestrant. Patients with recurrent or refractory tumors are treated with additional use of CDK4/6 inhibitors or Alpelisib for PIK3CA-mutated cancers.

[16] = tested on: PTEN-mutated MFE-319 cells; test: dose-dependent apoptosis induction; assay type: cell-based, human; settings: MFE-319, 48 hour, compared to control
[17] = tested on: SW1573 human lung tumor xenografts; settings: for T/C ratio (%): Day 15; for Number of deaths / Tumor volume (mm^3) Day 15 Mean ± SE: qd Day 1-14, po
[18] = tested on: AsPC-1 human pancreatic tumor xenografts; settings: for T/C ratio (%): Day 22; for Tumor volume (mm^3) Day 22 Mean ± SE: qd Day 1-21, po
Experimental: All treatments were administered every day by oral gavage. The tumor volumes and body weights of animals were recorded.

[19] = with estrogen, read-out: IC50 (nmol/L) E2 (+)
[20] = without estrogen, read-out: IC50 (nmol/L) E2 (−)

Compound: CC(C)(C)NCCNc1ccc(-c2nnc(C(F)(F)F)o2)nc1C1CCN(c2ncnc3c2C(C)(C)C(=O)N3)CC1 [Compound (1), 4-(4-(3-((2-(tert-butylamino)ethyl)amino)-6-(5-(trifluoromethyl)-1,3,4-oxadiazol-2-yl)pyridin-2-yl)piperidin-1-yl)-5,5-dimethyl-5H-pyrolo[2,3-d]pyrimidin-6(7H)-one]
- pIC50 [1, 19]: 6.73
- pIC50 [1, 20]: 6.53
- pIC50 [2, 19]: 6.97
- pIC50 [2, 20]: 7.05
- pIC50 [3, 19]: 7.43
- pIC50 [3, 20]: 6.95
- pIC50 [4, 19]: 7.19
- pIC50 [4, 20]: 6.90
- pIC50 [5]: 6.89
- pIC50 [6]: 5.55
- pIC50 [7]: 6.07
- pIC50 [8]: 6.93
- pIC50 [9]: 6.74
- pIC50 [10]: 6.50
- pIC50 [11]: 7.03
- pIC50 [12]: 6.86
- Number of deaths [13]: 0
- T/C ratio (%) ([13]; Day 15): 59%
- Tumor volume (mm^3) Day 15 Mean ± SE ([13]; qd Day 1-14, po): 867.8 ± 210.6 mm^3
- signals of pPRAS40, pYB1, and pS6RP (target inhibition) ([14]; MCF7, control and NF1 knockdown, 24 hours, immunoblot): decreased the signals of pPRAS40, pYB1, and pS6RP in a concentration-dependent manner
- apoptosis induction (cleaved PARP signal) ([14]; MCF7 NF1 knockdown cells versus control cells): did not exhibit the attenuation of apoptosis induction
- apoptosis induction (cleaved PARP signal) ([14]; MCF7 control cells (non-targeting siRNA), single agent): induced apoptosis
- apoptosis induction [15]: observed
- levels of cleaved caspase-3 and cleaved PARP [16]: increased cleaved caspase-3 and cleaved PARP in a concentration dependent manner
- T/C ratio (%) ([17]; 30 mg/kg/day): 55%
- Number of deaths ([17]; 30 mg/kg/day): 0
- Tumor volume (mm^3) Day 15 Mean ± SE ([17]; 30 mg/kg/day): 438.6 ± 81.1 mm^3
- T/C ratio (%) ([17]; 60 mg/kg/day): 38%
- Number of deaths ([17]; 60 mg/kg/day): 0
- Tumor volume (mm^3) Day 15 Mean ± SE ([17]; 60 mg/kg/day): 305.6 ± 33.0 mm^3
- Number of deaths ([18]; 40 mg/kg/day): 0
- T/C ratio (%) ([18]; 40 mg/kg/day): 91%
- Tumor volume (mm^3) Day 22 Mean ± SE ([18]; 40 mg/kg/day): 860.1 ± 112.1 mm^3
- Number of deaths ([18]; 80 mg/kg/day): 0
- T/C ratio (%) ([18]; 80 mg/kg/day): 69%
- Tumor volume (mm^3) Day 22 Mean ± SE ([18]; 80 mg/kg/day): 648.0 ± 51.7 mm^3
- weight reduction or tolerability ([18]; mouse, in vivo): no significant changes in weight reduction or tolerability
